# Measured values reported in patent publication US6417383B1, “Thermosensitive cyclotriphosphazene derivatives and a preparation method thereof” (Korea Institute of Science and Technology, priority 1999, dated 2002).
# Assay: LCST (lower critical solution temperature) measured by UV/VIS spectrophotometer
# Type: physicochemical
# Details: lower critical solution temperature in water; Perkin-Elmer Lamda18 UV/VIS spectrophotometer
# Description: Thermosensitivity in the present invention refers to the reversible phenomenon wherein a material is dissolved in water at a low temperature but precipitated as a result of the lowered solubility above at a critical temperature, and re-dissolved in water by lowering the temperature. This phenomenon is contradictory to the general phenomenon that solubility increases at higher temperatures. Thermosensitivity is often observed for water-soluble polymers that are dissolved below and precipitated above the so-called lower critical solution temperatures (LCST). Below the LCST, interaction between polymer and water molecules by hydrogen bonding is greater than the intermolecular hydrophobic interaction between polymer molecules, which results in dissolution of the polymer in water. As the temperature of the aqueous solution increases, however, the hydrogen bonding of the polymer-water molecules weakens whereas the hydrophobic interaction between the polymer molecules increases. As, the temperature of the aqueous solution reaches the LCST, the hydrophobic interaction becomes greater than the hydrogen bonding interaction between the polymer and water molecules resulting in the precipitation of the polymer in aqueous solution.
# Elemental analysis of carbon, hydrogen, nitrogen in the compounds of the present invention was performed in the Special Analysis Center in our Institute by using a carbon, hydrogen and nitrogen analyzer (Perkin Eimer), and phosphorous analysis was performed using a Polyscan 61E ICP. Also, hydrogen and phosphorous nuclear magnetic resonance spectra were obtained using a Varian Gemini-300, and the LCST was measured by using a Perkin-Elmer Lamda18 UV/VIS spectrophotometer.
row,LCST,Substance
1,73.0 °C,(Poly(methoxyethyleneglycol350))(L-glutamoyldiethylester) cyclotriphosphazene [Example 12]
2,42.5 °C,(Poly(methoxyethyleneglycol350))(L-aspartoyldibenzylester)cyclotriphosphazene [Example 11]
3,69.0 °C,(Poly(methoxyethyleneglycols550))L-aspartoyldibenzylester) cyclotriphosphazene [Example 13]
4,83.0 °C,(Poly(methoxyethyleneglycol350))(L-aspartoyldiethylester) cyclotriphosphazene [Example 10]
5,78.5 °C,(Poly(methoxyethyleneglycol750))(L-aspartoyldibenzylester) cyclotriphosphazene [Example 14]

# The next lines start with the substance.
row,Substance,LCST
1,(2-(2′-Methoxyethoxy)ethoxy)-(aminomalonatodiethylester) cyclotriphosphazene [Example 3],39.0 °C
2,(2-(2′-Methoxyethoxy)ethoxy)(glycinebenzylester) cyclotriphosphazene [Example 2],10.5 °C
3,(Poly(methoxyethyleneglycol350))(glycinebenzylester) cyclotriphosphazene [Example 8],65.5 °C
4,(2-(2′-Methoxyethoxy)ethoxy)(L-aspartoyldiethylester) cyclotriphosphazene [Example 4],47.5 °C
5,(2-(2′-Butoxyethoxy)ethoxy)(L-aspartoyldiethylester) cyclotriphosphazene [Example 7],below 0 °C
6,(2-(2′-Ethoxyethoxy)ethoxy)(L-aspartoyldiethylester) cyclotriphosphazene [Example 6],16.5 °C
7,(2-(2′-Methoxyethoxy)ethoxy)(L-glutamoyldiethylester) cyclotriphosphazene [Example 5],30.0 °C
8,(Poly(methoxyethyleneglycol350))(aminomalonatoyl diethylester)cyclotriphosphazene [Example 9],95.0 °C
9,(2-(2′-Methoxyethoxy)ethoxy)(glycineethylester)cyclotriphosphazene [Example 1],above 100 °C
